Assays:
[1] = blood-brain barrier permeability by contrast-enhanced T1-weighted MRI; type: in vivo, rat; details: given as 300 mg/kg NAC plus 300 mg/kg HPN-07 i.p., MRI seven days after initial drug administration
Experimental: Male Long-Evans pigmented rats (with body weights between 360 and 400 g, Harlan Laboratories, Indianapolis, Ind.) were injected intraperitoneally with a combination of 300 mg/kg of NAC plus 300 mg/kg of HPN-07, which were both dissolved in 5 ml/kg of physiological saline solution. […] Drug or saline was administered once on the first day and then twice a day for the following two days.
Seven days after the initial drug administration magnetic resonance imaging (MRI) was used to detect the disruption of the blood-brain barrier (BBB). Contrast enhancement noted on post-contrast T1-weighted MRI after injection of contrast agent (Magnevist=GdDTPA) is indicative of blood-brain barrier disruption. The hyper intensity on the T1-weighted images is resulting from leakage of the gadolinium based contrast agent injected at the baseline.
The MRI parameters and image scale factor were kept constant for all T1-weighted images. The images were evaluated both visually and by region-of-interest (ROI) measurement. ROT measurements were obtained at the time-points (before and after injection of contrast material on T1-weighted images) brain.

doublecortin = doublecortin immunostaining of hippocampus and entorhinal cortex after noise exposure; type: in vivo, chinchilla; details: for level of doublecortin staining in the entorhinal cortex: HPN-07 300 mg/kg i.p.
Experimental: In this Example, three-5 year old chinchilla were freedom divided into 3 groups (6 chinchilla at each time point in each group). Chinchilla in noise exposure and noise plus treatment groups were exposed to 105 dB SPL Octave band noise centered at 4 kHz for 6 hours. Chinchilla in the noise plus treatment group were received HPN-07 treatment (300 mg/kg, i.p) started 4 hours after noise exposure, and then twice a day for the following 2 days. Chinchilla in the normal control and the noise exposed only groups were received carrier solutions (i.p.). Chinchilla were euthanized and perfused with 4% paraformaldehyde in PBS 21 days and 6 months after noise exposure. Brains were dissected out and post-fixed in the fixative for one week. The brains were Cryosected at 30 μm. Goat anti-doublecortin (1:100) was used to label neural precursor cells. Images were taken from CA1 regions of hippocampus and the entorhinal cortex with a light microscope. Doublecortin staining reflects neurogenerosis in the brain after neuron damage and death after noise exposure.

[2] = stated as known; cited from earlier work

Molecule	blood-brain barrier permeability (% change in ROI signal intensity after Magnevist) [1]	blood-brain barrier permeability (% change in ROI signal intensity after Magnevist) ([1]; listed as 2,4-disulfonyl PBN)	level of doublecortin staining in the entorhinal cortex (doublecortin; 6 months post noise exposure)	density of doublecortin staining in the hippocampus (doublecortin; 6 months post noise exposure, HPN-07 300 mg/kg i.p. from 4 hours after noise)	level of doublecortin staining in the entorhinal cortex (doublecortin; 21 days post noise exposure)	blood-brain barrier permeability [2]
2,4-disulfonyl α-phenyl tertiary butyl nitrone [HPN-07]	effectively increases blood-brain barrier permeability	unexpectedly increases blood brain permeability	decreases the level of doubtecortin staining	comparable to the control subjects	decreases the level of doubtecortin staining	
CC(=O)N[C@@H](CS)C(=O)O [NAC, N-acetylcysteine]						known to not increase blood-brain barrier permeability
